Measurements published in paper PMC3234688 (2011).

Tested on: tubulin (αβ-tubulin; colchicine site in β-subunit)
Assay: [3H]colchicine competition on purified tubulin
Assay type: biochemical

SMILES | IC50
O=c1cc(-c2ccccc2)[nH]c2ccc3c(ccn3CC3CC3)c12 [MG-2477, 3-cyclopropylmethyl-7-phenyl-3H-pyrrolo[3,2-f]quinolin-9(6H)-one] | 900 nM
COc1ccc(/C=C\c2cc(OC)c(OC)c(OC)c2)cc1O [combretastatin A-4] | 1200 nM
